Laboratory results taken from US20140256790A1, “Methods for Identifying and Compounds Useful for Increasing the Functional Activity and Cell Surface Expression of CF-Associated Mutant Cystic Fibrosis Transmembrance Conductance Regulator” (priority 2008, published 2014).

How the values were obtained:
[1] = tested on: ΔF508 CFTR; assay: Cell-surface expression of ΔF508 CFTR by cell-surface biotinylation and Western blot in CFBE41o-cells; format: cell-based, human
Procedure: This analysis allows a more quantitative measurement of the levels of restoration of cell-surface expressed ΔF508 CFTR, as well as the glycosylation status of the ΔF508 CFTR protein (Cheng et al., 1990). A preferred effect of a HIT would be increased cell-surface expression of ΔF508 CFTR, and especially “band C” (Cheng et al., 1990), fully glycosylated ΔF508 CFTR. The assay to measure cell surface expression of ΔF508-CFTR is performed in the following fashion: CFBE41o-cells are seeded in 60 mm cell culture dishes coated with 0.1 mg/mL bovine serum albumin (BSA), 0.03 mg/mL bovine collagen type 1 and 0.01 mg/mL human fibronectin. CFBE41o-cells are cultured in MEM containing 10% Fetal Bovine Serum, 2 mM glutamine, 100 IU/mL penicillin, 0.1 mg/mL streptomycine sulfate and 0.5 mg/mL hygromycin B at 37° C., 5% CO2 in a humidified chamber. One day after seeding, an aliquot of the Ad-siRNA is applied to each well. […] The supernatant is analyzed on Western blots (BioRad Criterion XT gels, 3-8% polyacrylamide #3450131). […] Quantification of the cell surface expression of ΔF508 CFTR was performed with Biorad Quantity One software.
Positive and negative controls for the biotinylation include incubation of cell culture at 27° C. for 48 hrs to correct misfolding and trafficking of ΔF508 CFTR, and omission of Ad-siRNAs respectively. No signal is detected when the biotinylation reagent was omitted. […]
Target sequence in this assay (P13569 other isoform, or with tags, fused parts or gaps DEL508-508): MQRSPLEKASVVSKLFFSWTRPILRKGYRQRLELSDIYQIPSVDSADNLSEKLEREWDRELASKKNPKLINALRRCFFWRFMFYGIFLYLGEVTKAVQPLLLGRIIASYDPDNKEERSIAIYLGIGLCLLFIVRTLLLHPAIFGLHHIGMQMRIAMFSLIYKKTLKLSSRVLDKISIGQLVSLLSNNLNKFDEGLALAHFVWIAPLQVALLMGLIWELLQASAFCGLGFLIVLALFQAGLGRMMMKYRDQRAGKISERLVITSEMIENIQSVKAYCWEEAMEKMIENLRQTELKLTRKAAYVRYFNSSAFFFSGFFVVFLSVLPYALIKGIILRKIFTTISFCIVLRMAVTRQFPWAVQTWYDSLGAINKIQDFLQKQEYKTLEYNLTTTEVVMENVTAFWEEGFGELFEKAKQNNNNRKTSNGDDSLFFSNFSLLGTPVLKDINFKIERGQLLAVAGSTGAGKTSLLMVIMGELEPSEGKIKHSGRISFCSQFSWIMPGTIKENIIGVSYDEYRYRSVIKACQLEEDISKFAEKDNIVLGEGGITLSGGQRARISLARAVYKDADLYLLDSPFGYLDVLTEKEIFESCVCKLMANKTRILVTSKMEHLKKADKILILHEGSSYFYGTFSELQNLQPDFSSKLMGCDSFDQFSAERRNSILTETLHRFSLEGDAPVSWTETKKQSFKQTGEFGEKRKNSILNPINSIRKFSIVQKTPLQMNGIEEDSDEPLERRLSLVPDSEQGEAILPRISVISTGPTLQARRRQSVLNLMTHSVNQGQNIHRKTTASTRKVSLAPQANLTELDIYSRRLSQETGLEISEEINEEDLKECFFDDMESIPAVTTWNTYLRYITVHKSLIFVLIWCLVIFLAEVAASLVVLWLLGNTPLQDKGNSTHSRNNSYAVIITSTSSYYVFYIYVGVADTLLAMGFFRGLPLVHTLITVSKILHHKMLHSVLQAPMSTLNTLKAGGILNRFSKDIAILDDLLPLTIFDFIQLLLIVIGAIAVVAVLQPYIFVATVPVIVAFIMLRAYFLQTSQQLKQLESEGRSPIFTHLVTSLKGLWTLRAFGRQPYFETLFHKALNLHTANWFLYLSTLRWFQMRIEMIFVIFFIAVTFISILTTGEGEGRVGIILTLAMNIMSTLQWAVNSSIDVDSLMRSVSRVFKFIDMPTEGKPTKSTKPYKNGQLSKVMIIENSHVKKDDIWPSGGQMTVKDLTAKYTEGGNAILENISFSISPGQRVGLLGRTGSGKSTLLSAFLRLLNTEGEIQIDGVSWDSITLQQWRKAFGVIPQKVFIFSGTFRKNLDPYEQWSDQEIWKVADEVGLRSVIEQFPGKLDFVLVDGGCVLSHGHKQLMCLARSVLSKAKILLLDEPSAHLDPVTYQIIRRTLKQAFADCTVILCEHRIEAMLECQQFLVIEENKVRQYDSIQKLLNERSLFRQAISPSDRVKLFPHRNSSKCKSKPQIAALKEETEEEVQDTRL

[2] = tested on: ΔF508 CFTR; assay: Trans-epithelial chloride flux (short-circuit current, Ussing chamber) in CFTR ΔF508 homozygous primary bronchial epithelial cells; conditions: primary CF bronchial epithelial cell culture on filter support; Ad-siRNA knockdown; forskolin 10 μM, genistein 50 μM
Text: A further validation of the correction of ΔF508 CFTR is the correction of trans-epithelial chloride transport in primary bronchial epithelial cell cultures from a CF patient, grown in a filter support. […] A standard drug addition protocol (Devor et al., 2000) can be used to detect transepithelial currents due to CFTR. Short-circuit current (Isc) across HBE primary cultures can be measured as described (Myerburg et al., 2006; Myerburg et al., 2008). Cells cultured on filter supports are mounted in modified Ussing chambers, and the cultures are continuously short-circuited with an automatic voltage clamp (Physiological Instruments, San Diego, Calif.). The basolateral bathing solution composition is: 120 mM NaCl, 25 mM NaHCO3, 3.3 mM KH2PO4, 0.8 mM K2HPO4, 1.2 mN MgCl2, 1.2 mM CaCl2, and 10 mM glucose. A basal-to-apical Cl gradient can be imposed by reducing the NaCl concentration of the apical bathing solution by replacing NaCl with equimolar Na-gluconate. The chambers are maintained at 37° C. and gassed continuously with a mixture of 95% O2-5% CO2 which fixed the pH at 7.4. Following a 5 min equilibration period, the baseline Isc is recorded. Sodium currents are blocked by addition of the epithelial sodium channel (ENaC) blocker, amiloride (10 μM), to the apical bath. […]

[3] = tested on: ΔF508-CFTR; format: cell-based, human; conditions: rescreen with repropagated Ad-siRNA; ΔF508-CFTR and YFP adenovirus; 10 microM forskolin and 100 microM genistein; threshold −2
Sequence of ΔF508-CFTR (P13569 other isoform, or with tags, fused parts or gaps DEL508-508): as above
Procedure: Accordingly, an assay to monitor CFTR-halide flux by using a reporter protein, halide-sensitive fluorescent protein YFP, is developed to measure the functional activity of CFTR. Cells expressing this reporter protein show enhanced fluorescence quenching of YFP by extracellular isomolar iodide solutions in the presence of activated CFTR. This is caused by the increased flux of iodide across the plasma membrane by CFTR. The fluorescence quenching is measured on a fluorescence plate reader.
Human lung epithelial cells are isolated from a ΔF508-CFTR patient, obtained after informed consent. These cells are stably transfected with ΔF508-CFTR expression plasmids and are named CFBE41o-cells (Gruenert et al., 2004). […]
CFBE41o-cells are transduced with the YFP fluorescent halide reporter adenoviral vector at a VPU of 2000 viral particles per cell, together with adenoviral vectors expressing ΔF508-CFTR, or as a positive control the wild-type CFTR. […] Plates are read in a fluorescent plate reader, equipped with injectors for the delivery of reagents to the well (Perkin-Elmer Envision 2102). Each well is read for 2 seconds at 485/530 nm (excitation/emission) prior to the addition of 110 microliter iodide-containing buffer (137 mM NaI, 2.7 mM KCl, 10 mM Na2HPO4, 1.76 mM KH2PO4 at pH 7.4). Fluorescent reading is continued for an additional 12 sec, sampling every 200 msec. […]

UGT3A2: Ad-siRNA (adenovirus-expressed shRNA) knocking down UGT3A2; KD sequences SEQ ID NO: 56, 57; SEQ 57 used in Table 6 (guide AACATGGTCCGAGTAGAAG; listed as Homo sapiens)
CFTRΔF508 cell surface expression ([1]; CFBE41o- cell culture upon TARGET Ad-siRNA, relative to E-cadherin signal, without Ad-siRNAs set at 0, 27° C. for 48 hrs set at 1): 0.906 | C-band/B-band ratio ([1]; cell-surface ΔF508 CFTR, band C fully glycosylated / band B core glycosylated, CFBE41o-): 0.278 | Forskolin-Genistein induced chloride flux in CF primary epithelial cells compared to control cells (non-CF) [2]: 22.9% | Forskolin-Genistein induced halide flux in CFBE41o- [3]: −5.485 fold stdev from the mean of the negative controls
